These results are taken from patent publication US20100311965A1, “2-AMINOQUINAZOLINE DERIVATIVE” (CARNA BIOSCIENCES INC., priority 2007, published 2010).

One test concerns the target T1, AurA kinase (Homo sapiens, UniProt O14965).
T1 construct: purchased Carna Biosciences Inc. (Kobe) 05-101
T1 sequence (O14965 1-403): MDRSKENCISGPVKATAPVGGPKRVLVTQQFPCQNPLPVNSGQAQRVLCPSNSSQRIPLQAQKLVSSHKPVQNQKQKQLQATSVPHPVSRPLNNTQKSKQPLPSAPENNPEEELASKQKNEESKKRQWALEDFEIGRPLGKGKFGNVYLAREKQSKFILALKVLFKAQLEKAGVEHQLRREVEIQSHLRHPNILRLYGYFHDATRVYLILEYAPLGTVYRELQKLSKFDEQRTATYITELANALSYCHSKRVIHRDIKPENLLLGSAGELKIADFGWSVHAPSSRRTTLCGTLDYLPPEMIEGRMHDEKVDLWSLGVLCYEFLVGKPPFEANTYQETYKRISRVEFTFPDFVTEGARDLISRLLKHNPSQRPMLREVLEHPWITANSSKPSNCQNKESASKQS
In words: Kinase activity, mobility shift assay (MSA), AurA. Type of test: biochemical. The note with it: read-out: inhibitory activity against AurA kinase. The method, then:
(§1) A test compound was dissolved in DMSO to obtain a 10 mM test compound solution, which was stored in a dark place at −20° C. until measurement. When bioactivity (kinase activity) is measured, a test compound solution is diluted with DMSO so that the concentration becomes 100 times higher than […], and then diluted 25 times (DMSO concentration is 4%) with an assay buffer described hereinafter.
(§2) Products manufactured by Carna Biosciences Inc. (Kobe) used as protein kinases (recombinant human kinases) in the test are as follows: […]
(§3) Kinase activity was measured by a mobility shift assay (MSA) method using QuickScout Screening Assist™ MSA (commercially available kit, manufactured by Carna Biosciences Inc.)
(§4) 5 μl of a test compound solution (the concentration is 4 times of the final concentration) dissolved or suspended in an assay buffer [20 mM HEPES, 0.01% Triton™ X-100, 1 mM dithiothreitol, pH 7.5] or 5 μl of a solvent (4% DMSO-assay buffer) was charged in a 384 well plate made of polypropylene (product number 781280, manufactured by Greiner Bio-One Co., Ltd.). […] Inhibition (%) of the test compound was calculated in accordance with the following equation: […]

The subject of test [1] is Rat basophilic cells RBL-2H3. Briefly: Action against IgE-induced degranulation (β-hexosaminidase release). Type of test: cell-based. The note with it: RBL-2H3 cells, anti-DNP-IgE / DNP-BSA, read-out: inhibitory activity against IgE-induced degranulation. The method, then:
An inhibitory action against SYK was evaluated by an inhibitory action against degranulation of basophils induced by IgE. Rat basophilic cells RBL-2H3 were incubated with an anti-DNP-IgE antibody (1 μg/mL, Zymed) overnight. After washing cells twice with HBSS, an antigen DNP-BSA (1 μg/mL, LSL) was added, followed by incubation for 30 minutes. The supernatant was taken and an activity of β-hexosaminidase in the solution isolated by degranulation was measured using p-nitrophenyl-N-β-D-glucosaminide as a substrate. Using an absorbance meter (Spectra MAX Pro, Molecular Devices), each absorbance at 405 nm and 570 nm of the solution was measured and an increase in the amount was taken as an enzyme activity. 10 minutes before the addition of an antigen, a test material and a solvent (0.1% DMSO) were added to cells. Inhibition rate (%) against degranulation was calculated by the following equation.
Inhibition rate (%)=(1−(A−C)/(B−C))×100
where A denotes an increase in absorbance of a test material group, B denotes an increase in absorbance of a solvent group, and C denotes an increase in absorbance of a solvent group which is not stimulated by an antigen.

The target of a further test is T2, Syk kinase (Homo sapiens, UniProt P43405).
T2 construct: purchased Carna Biosciences Inc. (Kobe) 08-176
In words: Kinase activity, mobility shift assay (MSA), Syk. Type of test: biochemical. The note with it: read-out: inhibitory activity against Syk kinase. The method, then: as §1
Products manufactured by Carna Biosciences Inc. (Kobe) used as protein kinases (recombinant human kinases) in the test are as follows:
SYK (product number: 08-176), JAK3 (product number: 08-046), FLT3 (product number: 08-154), PDGFRα (PDGFRA) (product number: 08-157), TRKA (NTRK1) (product number: 08-186), KDR (product number: 08-191), CDK2/cycA (product number: 04-103), and AurA (AURKA) (product number: 05-101).
as §3
5 μl of a test compound solution (the concentration is 4 times of the final concentration) dissolved or suspended in an assay buffer [20 mM HEPES, 0.01% Triton™ X-100, 1 mM dithiothreitol, pH 7.5] or 5 μl of a solvent (4% DMSO-assay buffer) was charged in a 384 well plate made of polypropylene (product number 781280, manufactured by Greiner Bio-One Co., Ltd.). Then, 5 μl of ATP/substrate/metal solution of QuickScout Screening Assist MSA was added. Furthermore, 10 μl of a kinase solution diluted with assay buffer was added and the reaction was initiated. However, only assay buffer (10 μl) was added to blank. The concentration of kinase and reaction conditions were controlled in accordance with the protocol of QuickScout Screening Assist MSA. Then, the reaction was terminated by adding 60 μl of termination buffer of QuickScout Screening Assist MSA and the amount of a substrate (S) and a phosphorylated substrate (P) in the reaction solution were determined in accordance with the protocol of QuickScout Screening Assist MSA using LabChip3000 (manufactured by Caliper Life Sciences Co., MA, USA), and also inhibition of the test compound at a concentration of 0.01, 0.1 and 1 μM was measured, respectively. The amounts of S and P were expressed by the height of each separated peak. Inhibition (%) of the test compound was calculated in accordance with the following equation:
Inhibition (%)=(1−(C−A)/(B−A))×100
where A denotes blank, B denotes a solvent and C denotes P/(P+S) of a well of the compound.

A further test addresses T3, JAK3 (Homo sapiens, UniProt P52333).
T3 construct: purchased Carna Biosciences Inc. (Kobe) 08-046
T3 sequence (P52333 1-1124): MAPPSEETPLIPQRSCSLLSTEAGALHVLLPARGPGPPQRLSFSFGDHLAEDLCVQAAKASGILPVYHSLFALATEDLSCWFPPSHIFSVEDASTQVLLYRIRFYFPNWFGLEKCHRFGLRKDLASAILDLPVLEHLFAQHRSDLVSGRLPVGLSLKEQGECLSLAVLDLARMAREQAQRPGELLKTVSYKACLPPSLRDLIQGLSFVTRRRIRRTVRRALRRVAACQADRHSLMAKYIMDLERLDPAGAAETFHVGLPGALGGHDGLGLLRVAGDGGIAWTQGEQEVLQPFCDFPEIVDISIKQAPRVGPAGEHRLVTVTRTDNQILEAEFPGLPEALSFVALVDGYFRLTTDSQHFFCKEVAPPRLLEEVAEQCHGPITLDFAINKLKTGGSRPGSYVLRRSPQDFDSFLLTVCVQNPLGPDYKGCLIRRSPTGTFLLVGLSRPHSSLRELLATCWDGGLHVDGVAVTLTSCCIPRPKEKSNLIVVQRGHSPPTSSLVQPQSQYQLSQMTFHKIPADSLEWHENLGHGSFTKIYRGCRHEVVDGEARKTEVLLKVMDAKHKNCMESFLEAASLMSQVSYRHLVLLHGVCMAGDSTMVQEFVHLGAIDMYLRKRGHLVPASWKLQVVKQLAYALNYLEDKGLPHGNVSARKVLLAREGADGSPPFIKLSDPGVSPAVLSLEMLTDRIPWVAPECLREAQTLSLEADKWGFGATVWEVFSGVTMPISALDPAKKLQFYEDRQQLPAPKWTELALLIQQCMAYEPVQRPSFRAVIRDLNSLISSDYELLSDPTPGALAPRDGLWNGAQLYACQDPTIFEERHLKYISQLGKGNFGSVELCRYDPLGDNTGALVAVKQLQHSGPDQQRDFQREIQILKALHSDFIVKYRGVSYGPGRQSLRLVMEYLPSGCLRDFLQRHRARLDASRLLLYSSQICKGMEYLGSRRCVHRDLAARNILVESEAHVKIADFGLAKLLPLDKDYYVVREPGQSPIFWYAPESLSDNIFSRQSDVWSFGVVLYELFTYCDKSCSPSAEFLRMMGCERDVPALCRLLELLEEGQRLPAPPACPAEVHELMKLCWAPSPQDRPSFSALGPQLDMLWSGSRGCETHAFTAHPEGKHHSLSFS
Briefly: Kinase activity, mobility shift assay (MSA), JAK3. Type of test: biochemical. The note with it: read-out: inhibitory activity against JAK3 kinase. The method, then:
as §1, §2, §3, §4

Another test has as its target JAK2 (Homo sapiens, UniProt O60674). In words: Kinase activity, mobility shift assay (MSA), JAK2. Type of test: biochemical. The note with it: read-out: inhibitory activity against JAK2 kinase.

Chain of JAK2 (O60674 whole entry): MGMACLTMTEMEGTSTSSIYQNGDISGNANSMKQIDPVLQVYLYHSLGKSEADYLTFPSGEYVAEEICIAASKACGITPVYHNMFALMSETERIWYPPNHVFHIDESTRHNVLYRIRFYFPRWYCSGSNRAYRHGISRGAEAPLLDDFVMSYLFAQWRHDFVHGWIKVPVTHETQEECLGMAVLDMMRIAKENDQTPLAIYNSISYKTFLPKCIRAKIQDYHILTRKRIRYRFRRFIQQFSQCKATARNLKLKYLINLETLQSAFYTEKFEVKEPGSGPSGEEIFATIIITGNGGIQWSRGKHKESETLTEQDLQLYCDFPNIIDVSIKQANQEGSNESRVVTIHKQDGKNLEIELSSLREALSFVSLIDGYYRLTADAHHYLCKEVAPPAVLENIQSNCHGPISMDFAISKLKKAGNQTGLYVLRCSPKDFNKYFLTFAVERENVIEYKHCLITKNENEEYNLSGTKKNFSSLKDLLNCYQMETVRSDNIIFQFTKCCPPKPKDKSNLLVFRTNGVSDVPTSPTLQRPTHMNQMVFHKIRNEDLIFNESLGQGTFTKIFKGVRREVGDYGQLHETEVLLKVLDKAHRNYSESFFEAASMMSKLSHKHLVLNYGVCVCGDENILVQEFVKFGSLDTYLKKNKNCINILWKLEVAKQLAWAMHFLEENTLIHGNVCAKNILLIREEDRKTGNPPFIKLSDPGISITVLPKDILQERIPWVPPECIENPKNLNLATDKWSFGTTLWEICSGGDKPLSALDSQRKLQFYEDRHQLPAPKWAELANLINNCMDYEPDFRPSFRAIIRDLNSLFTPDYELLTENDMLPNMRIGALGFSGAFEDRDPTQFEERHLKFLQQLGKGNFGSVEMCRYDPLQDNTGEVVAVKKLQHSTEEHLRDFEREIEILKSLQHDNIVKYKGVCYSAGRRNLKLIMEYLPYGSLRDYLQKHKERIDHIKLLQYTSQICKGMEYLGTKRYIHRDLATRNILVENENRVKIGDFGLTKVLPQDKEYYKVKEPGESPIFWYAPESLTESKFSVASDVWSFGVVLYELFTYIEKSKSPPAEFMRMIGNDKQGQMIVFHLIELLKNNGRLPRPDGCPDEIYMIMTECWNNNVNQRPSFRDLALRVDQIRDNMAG

As for `Cc1cccc2cnc(Nc3ccc4cc[nH]c4c3)nc12` [Example 5, N-(1H-indol-6-yl)-8-methylquinazoline-2-amine], the inhibition at 0.1 µM at AurA kinase was ≥ 50%.

Turning to `Cc1c(N2CCN(C)CC2)ccc2cnc(Nc3ccc4cn[nH]c4c3)nc12` [Example 63, N-(1H-indazol-6-yl)-8-methyl-7-(4-methylpiperazin-1-yl)quinazoline-2-amine], the inhibition at 0.05 µM in test [1] was ≥ 50%.

For `CCNC(=O)n1ncc2c(N)cc(Nc3ncc4cccc(C)c4n3)cc21` [Example 79, 4-amino-N-ethyl-6-(8-methylquinazolin-2-ylamino)-1H-indazole-1-carboxamide], the inhibition at 0.05 µM in test [1] was ≥ 50%.

As for `Cc1cccc2cnc(Nc3cc(O)c4cn[nH]c4c3)nc12` [Example 82, 8-methyl-N-(4-hydroxy-1H-indazol-6-yl)quinazoline-2-amine], in test [1], the inhibition at 0.05 µM was ≥ 50%. For the same compound, the inhibition at 0.1 µM at Syk kinase is ≥ 50%.

In the case of `Cc1nc2c(N)cc(Nc3ncc4cccc(C)c4n3)cc2[nH]1` [Example 88, 8-methyl-N-(2-methyl-4-amino-1H-benzo[d]imidazol-6-yl)quinazoline-2-amine], the inhibition at 0.05 µM in test [1] was ≥ 50%. In addition, the inhibition at 0.1 µM on Syk kinase was ≥ 50%.

As for `COc1ccc(Nc2ncc3cccc(C)c3n2)cc1OC` [Example 30], the inhibition at 0.1 µM at JAK3 and at JAK2 was ≥ 50% throughout.
